Data set [1] concerns HBV replication in HepG2.2.15 cells. The experiment in a line: Anti-HBV activity in vitro in HepG2.2.15 cells (extracellular HBV DNA by qPCR). The class given is cell-based. As to conditions: Hepatitis B virus, HepG2.2.15, Anti-HBV activity in HepG2.2.15 cells; read-out: EC50. In short, it runs like this: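 Constitutively HBV-producing HepG2.2.15 cells were seeded overnight at 37 °C, then treated with half-log serial dilutions of compound (0.5% DMSO final) for five days. Supernatant HBV DNA was extracted and quantified by qPCR; EC50 is the concentration inhibiting HBV replication by 50%.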
A general note: Real-time PCR tracks product formation cycle by cycle.

Data set [2] can be described thus: Human microsomal clearance assay. In kind it is in vitro ADME. As to conditions: human, 1 μM, pH 7.4. In short, it runs like this: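 Liver microsomes (0.5 mg/mL protein) were incubated with 1 μM compound at 37 °C, pH 7.4 phosphate, with an NADPH-regenerating system. Samples at 0-30 min were quenched and measured by LC-MS/MS for parent loss. No-NADPH controls were included.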

Data set [3] is described as follows: Lyophilisation solubility assay (Lysa). In kind it is physicochemical. Conditions: pH 6.5, aqueous buffer, thermodynamic from solid. The method, then: The aqueous solubility is an important physico-chemical property that plays a significant role in various physical and biological processes. It is desirable to have good solubility which enables good permeability and gastric and intestinal absorption, linear dose proportionality, less PK variability, and easy formulation for PD/PK studies. […] Lyophilisation solubility assay (Lysa) is a well adopted high throughput assay to measure compound solubility in industry.
Samples are prepared in duplicate from 10 mM DMSO stock solutions. After evaporation of DMSO with a centrifugal vacuum evaporator, the residue is solved in 0.05 M phosphate buffer (pH 6.5), stirred for one hour and then shook for two hours. After one night, the solution is filtered using a microtiter filter plate and then the filtrate and its 1/10 dilution are then analyzed by direct UV measurement or by HPLC-UV. In addition a four-point calibration curve is prepared from the 10 mM stock solutions and used for the solubility determination of the compounds. The results are in μg/ml. In case the percentage of sample measured in solution after evaporation divided by the calculated maximum of sample amount is bigger than 80% the solubility is reported as bigger than this value.

Values after ≈ are worked out from the molar mass of the structure shown.

Broadly, the EC50 is the concentration at which the effect is half-maximal. A word on the solubility (thermodynamic): it is the concentration in solution at equilibrium with solid.

In the case of `CCOC(=O)C1=C(CN2[C@H]3COC[C@@H]2[C@@H](F)[C@H](CC(=O)O)C3)NC(c2nccs2)=N[C@H]1c1ccccc1Cl` [Example 103, 2-[(1R,5R,6S,7S)-9-[[(4R)-4-(2-chlorophenyl)-5-ethoxycarbonyl-2-thiazol-2-yl-1,4-dihydropyrimidin-6-yl]methyl]-6-fluoro-3-oxa-9-azabicyclo[3.3.1]nonan-7-yl]acetic acid], the EC50 in data set [1] was 274 nM. Moreover, the CLh in data set [2] was determined as 0 mL/min/kg. The compound further showed a thermodynamic solubility in data set [3] of 345 µg/mL (≈ 613 µM).
In the same order, the values of `COC(=O)C1=C(CN2[C@@H]3CC[C@@]2(C(=O)O)CC3(F)F)NC(c2nccs2)=N[C@H]1c1ccc(F)cc1Cl` [Example 149, (1R,4S)-7-[[(4R)-4-(2-chloro-4-fluoro-phenyl)-5-methoxycarbonyl-2-thiazol-2-yl-1,4-dihydropyrimidin-6-yl]methyl]-2,2-difluoro-7-azabicyclo[2.2.1]heptane-4-carboxylic acid] are 4 nM, 3.4 mL/min/kg and above 665 µg/mL.
In the same order, the values of `COC(=O)C1=C(CN2C3COCC2CN(C(=O)CO)C3)NC(c2nccs2)=N[C@H]1c1ccc(F)cc1Br` [Example 53, Methyl (4R)-4-(2-bromo-4-fluoro-phenyl)-6-[[7-(2-hydroxyacetyl)-3-oxa-7,9-diazabicyclo[3.3.1]nonan-9-yl]methyl]-2-thiazol-2-yl-1,4-dihydropyrimidine-5-carboxylate] are 16.8 nM, 7.0 mL/min/kg and 163 µg/mL (≈ 274 µM).
In the same order, the values of `COC(=O)C1=C(CN2[C@H]3CC[C@]2(C(=O)O)CC3(F)F)NC(c2nccs2)=N[C@H]1c1ccc(F)cc1Cl` [Example 148, (1S,4R)-7-[[(4R)-4-(2-chloro-4-fluoro-phenyl)-5-methoxycarbonyl-2-thiazol-2-yl-1,4-dihydropyrimidin-6-yl]methyl]-2,2-difluoro-7-azabicyclo[2.2.1]heptane-4-carboxylic acid] are 59.2 nM, 2.3 mL/min/kg and above 655 µg/mL.
As for `COC(=O)C1=C(CN2[C@@H]3COC[C@H]2C[C@H](CC(=O)O)C3)NC(c2nccs2)=N[C@H]1c1ccccc1Br` [Example 76, Exo-2-[(1S,5R)-9-[[(4R)-4-(2-bromophenyl)-5-methoxycarbonyl-2-thiazol-2-yl-1,4-dihydropyrimidin-6-yl]methyl]-3-oxa-9-azabicyclo[3.3.1]nonan-7-yl]acetic acid], in data set [1], the EC50 is 31 nM. Besides, the CLh in data set [2] amounted to 3.3 mL/min/kg. This compound also had a thermodynamic solubility in data set [3] above 706 µg/mL.
In the same order, the values of `COC(=O)C1=C(CN2C3COCC2CC(C(=O)O)C3)NC(c2nccs2)=NC1c1ccc(F)c(F)c1` (stereo not drawn) [Example 3, 9-[6-(3,4-Difluoro-phenyl)-5-methoxycarbonyl-2-thiazol-2-yl-3,6-dihydro-pyrimidin-4-ylmethyl]-3-oxa-9-aza-bicyclo[3.3.1]nonane-7-carboxylic acid] are 400 nM, 0 mL/min/kg and above 678 µg/mL.
Turning to `CCOC(=O)C1=C(CN2[C@@H]3COC[C@H]2C[C@H](CC(=O)O)C3)NC(c2nccs2)=N[C@H]1c1cccc(F)c1F` [Example 75, Exo-2-[(1S,5R)-9-[[(4R)-4-(2,3-difluorophenyl)-5-ethoxycarbonyl-2-thiazol-2-yl-1,4-dihydropyrimidin-6-yl]methyl]-3-oxa-9-azabicyclo[3.3.1]nonan-7-yl]acetic acid], the EC50 in data set [1] is 29.1 nM. In data set [2], the CLh came out at 1.0 mL/min/kg. This compound also showed a solubility (thermodynamic) in data set [3] above 656 µg/mL.
On to `COC(=O)C1=C(CN2C3COCC2C(O)[C@@H](CC(=O)O)C3)NC(c2nccs2)=N[C@H]1c1ccc(F)cc1Cl` (stereo partly drawn) [Example 124, 2-[(7R)-9-[[(4R)-4-(2-chloro-4-fluoro-phenyl)-5-methoxycarbonyl-2-thiazol-2-yl-1,4-dihydropyrimidin-6-yl]methyl]-6-hydroxy-3-oxa-9-azabicyclo[3.3.1]nonan-7-yl]acetic acid], for which the EC50 in data set [1] was 296 nM. Also, in data set [2], the CLh stood at 4.2 mL/min/kg. The thermodynamic solubility in data set [3] was above 753 µg/mL.
For `COC(=O)C1=C(CN2[C@H]3COC[C@@H]2[C@@H](F)[C@H](CC(=O)O)C3)NC(c2nccs2)=N[C@H]1c1cccc(F)c1Cl` [Example 101, 2-[(1R,5R,6S,7S)-9-[[(4R)-4-(2-chloro-3-fluoro-phenyl)-5-methoxycarbonyl-2-thiazol-2-yl-1,4-dihydropyrimidin-6-yl]methyl]-6-fluoro-3-oxa-9-azabicyclo[3.3.1]nonan-7-yl]acetic acid] the same measures were 24 nM, 0 mL/min/kg and 580 µg/mL (≈ 1020 µM).
In the case of `COC(=O)C1=C(CN2[C@@H]3COC[C@H]2C[C@@H](CC(=O)O)C3)NC(c2nccs2)=N[C@H]1c1cccc(F)c1Cl` [Example 55, 2-[(1R,5)-9-[[(4R)-4-(2-chloro-3-fluoro-phenyl)-5-methoxycarbonyl-2-thiazol-2-yl-1,4-dihydropyrimidin-6-yl]methyl]-3-oxa-9-azabicyclo[3.3.1]nonan-7-yl]acetic acid], the concentration giving a half-maximal response (EC50) in data set [1] stood at 22.3 nM. Besides, in data set [2], the CLh was found to be 0 mL/min/kg. The compound further gave a thermodynamic solubility in data set [3] of 505 µg/mL (≈ 920 µM).
For `COC(=O)C1=C(CN2[C@@H]3COC[C@H]2CN(C(=O)C(C)(C)C(=O)O)C3)NC(c2nccs2)=N[C@H]1c1ccc(F)cc1Cl` [Example 79, 3-[(1S,5R)-9-[[(4R)-4-(2-chloro-4-fluoro-phenyl)-5-methoxycarbonyl-2-thiazol-2-yl-1,4-dihydropyrimidin-6-yl]methyl]-3-oxa-7,9-diazabicyclo[3.3.1]nonan-7-yl]-2,2-dimethyl-3-oxo-propanoic acid] the same measures were 293 nM, 3.5 mL/min/kg and above 745 µg/mL.
For `COC(=O)C1=C(CN2C3COCC2CC(CC(=O)O)C3)NC(c2nccs2)=N[C@H]1c1ccccc1Br` (stereo partly drawn) [Example 134, Endo-2-[9-[[(4R)-4-(2-bromophenyl)-5-methoxycarbonyl-2-thiazol-2-yl-1,4-dihydropyrimidin-6-yl]methyl]-3-oxa-9-azabicyclo[3.3.1]nonan-7-yl]acetic acid] the same measures were 21 nM, 1.7 mL/min/kg and above 695 µg/mL.
Consider `COC(=O)C1=C(CN2C3COCC2C(F)(F)[C@@H](CC(=O)O)C3)NC(c2nccs2)=N[C@H]1c1ccc(F)cc1Cl` (stereo partly drawn) [Example 125, 2-[(7R)-9-[[(4R)-4-(2-chloro-4-fluoro-phenyl)-5-methoxycarbonyl-2-thiazol-2-yl-1,4-dihydropyrimidin-6-yl]methyl]-6,6-difluoro-3-oxa-9-azabicyclo[3.3.1]nonan-7-yl]acetic acid], for which the EC50 in data set [1] is 26.1 nM. The compound further displayed a CLh in data set [2] of 0 mL/min/kg. This compound registered a thermodynamic solubility in data set [3] of 170 µg/mL (≈ 291 µM).
In the same order, the values of `COC(=O)C1=C(CN2C3COCC2CC(C(=O)O)C3)NC(c2nccs2)=N[C@H]1c1ccc(F)cc1Br` (stereo partly drawn) [Example 5, 9-[(R)-6-(2-Bromo-4-fluoro-phenyl)-5-methoxycarbonyl-2-thiazol-2-yl-3,6-dihydro-pyrimidin-4-ylmethyl]-3-oxa-9-aza-bicyclo[3.3.1]nonane-7-carboxylic acid] are 21 nM, 0 mL/min/kg and above 660 µg/mL.

The values are drawn from patent publication US9266904B2, “6-bridged heteroaryldihydropyrimidines for the treatment and prophylaxis of hepatitis B virus infection” (priority 2013, dated 2016).
